Source: the NIST ThermoML archive (doi:10.1016/j.jct.2017.08.028)

Experiment: molar heat capacity at constant pressure
Conditions: 101.33 kPa, Crystal, Small (less than 1 g) adiabatic calorimetry

O[C@H]1[C@H](O)[C@@H](O)[C@H](O)[C@@H](O)[C@H]1O [cis-1,2,3,5-trans-4,6-cyclohexanehexol]
Conditions	molar heat capacity at constant pressure [J/K/mol]
5 K	0.095
6 K	0.1967
7 K	0.3623
8 K	0.6094
8.37 K	0.774
8.4 K	0.78
8.51 K	0.803
8.64 K	0.841
8.77 K	0.885
8.91 K	0.93
9 K	0.9596
9.05 K	0.977
9.2 K	1.034
9.34 K	1.096
9.5 K	1.162
9.65 K	1.224
9.81 K	1.296
9.98 K	1.381
10 K	1.387
10.17 K	1.467
10.39 K	1.577
10.59 K	1.677
10.81 K	1.817
11.05 K	1.945
11.28 K	2.084
11.52 K	2.218
11.76 K	2.363
12 K	2.535
12.25 K	2.7
12.5 K	2.861
12.75 K	3.034
13.01 K	3.189
13.27 K	3.362
13.53 K	3.524
13.81 K	3.727
14.08 K	3.897
14.35 K	4.078
14.63 K	4.226
14.91 K	4.431
15 K	4.502
15.19 K	4.618
15.47 K	4.81
15.75 K	4.99
16.04 K	5.208
16.32 K	5.4
16.61 K	5.588
16.9 K	5.795
17.2 K	5.99
17.49 K	6.202
17.78 K	6.394
18.08 K	6.622
18.37 K	6.852
18.67 K	7.06
18.97 K	7.278
19.27 K	7.496
19.57 K	7.721
19.87 K	7.949
20 K	8.03
20.46 K	8.428
21.33 K	9.104
22.21 K	9.711
23.1 K	10.41
24 K	11.09
24.9 K	11.77
25 K	11.83
25.81 K	12.44
26.73 K	13.12
27.66 K	13.84
28.59 K	14.6
30 K	15.78
30.38 K	16.06
31.42 K	16.86
32.38 K	17.74
33.35 K	18.4
34.31 K	19.3
35 K	19.73
35.28 K	20.02
36.25 K	20.7
37.23 K	21.47
38.21 K	22.22
39.19 K	22.99
40 K	23.57
40.18 K	23.66
41.16 K	24.37
42.15 K	25.13
43.15 K	25.81
44.14 K	26.63
45 K	27.22
45.14 K	27.34
46.17 K	28.07
47.17 K	28.86
48.17 K	29.58
49.18 K	30.39
50 K	30.99
50.18 K	31.12
51.2 K	31.92
53.79 K	33.97
54.97 K	34.9
55.99 K	35.65
57.01 K	36.49
58.03 K	37.34
59.05 K	38.14
60 K	38.84
60.07 K	38.87
61.1 K	39.73
62.12 K	40.52
63.15 K	41.35
64.17 K	42.18
65.2 K	43.06
66.23 K	43.91
67.26 K	44.68
68.29 K	45.54
69.32 K	46.48
70 K	46.97
70.38 K	47.25
71.85 K	48.53
73.87 K	50.14
75.89 K	51.78
77.91 K	53.41
78.79 K	54.18
79.15 K	54.64
79.8 K	55.07
80 K	55.23
80.92 K	56.01
81.14 K	56.14
83.15 K	57.79
85.15 K	59.59
87.15 K	61.09
89.15 K	62.93
90 K	63.55
91.14 K	64.62
93.14 K	66.21
95.13 K	67.8
97.12 K	69.47
99.11 K	71.03
100 K	71.84
101.58 K	73.24
104.56 K	75.65
107.54 K	78.02
110 K	80.06
110.53 K	80.42
113.53 K	82.88
116.54 K	85.33
119.54 K	87.73
120 K	88.17
122.54 K	90.16
125.55 K	92.54
128.56 K	94.96
130 K	96.15
131.58 K	97.38
134.6 K	99.81
137.62 K	102.1
140 K	104
140.65 K	104.5
143.68 K	106.9
146.71 K	109.2
149.74 K	111.6
150 K	111.7
152.78 K	113.9
155.81 K	116.2
158.85 K	118.6
160 K	119.4
161.89 K	120.9
164.97 K	123.2
168.01 K	125.5
170 K	126.9
171.06 K	127.7
174.1 K	130
177.15 K	132.3
180 K	134.3
180.2 K	134.4
183.25 K	136.7
186.3 K	138.9
189.35 K	141.2
190 K	141.7
192.4 K	143.5
195.46 K	145.6
198.52 K	147.8
200 K	149.1
201.57 K	150.1
204.63 K	152.3
208.19 K	155.1
210 K	156.4
212.26 K	158
216.41 K	161.2
220 K	163.7
220.48 K	164
224.57 K	167.1
228.65 K	170.1
230 K	171.1
232.72 K	173.2
236.81 K	176.2
240 K	178.5
240.91 K	179.3
245 K	182.3
249.09 K	185.2
250 K	185.9
253.18 K	188.2
257.27 K	191.3
260 K	193.4
261.36 K	194.4
265.46 K	197.6
269.55 K	200.6
270 K	200.9
273.15 K	203.2
273.64 K	203.7
277.73 K	206.6
280 K	208.4
281.9 K	210
285.98 K	212.8
290 K	216
290.07 K	215.9
294.15 K	219
298.15 K	222.1
298.22 K	222
300 K	223.5
303.01 K	226
308.39 K	230
310 K	231.1
313.76 K	234
319.12 K	237.9
320 K	238.7
324.46 K	241.9
329.77 K	246
330 K	246.2
335.05 K	250.1
340 K	253.7
340.3 K	253.9
